Measured values published in patent US7754707B2, “Methods of treatment of chronic immune disease” (R.E.D. Laboratories, N.V./S.A., priority 2002, dated 2010).
Entries after “also recorded” stand apart in the source; their conditions may differ.

Tests used:
[1] = tested on: alpha-1-antitrypsin; details: through direct interaction of the drug with HOCl; cited from earlier work
[2] = molecular target: T1, elastase (Homo sapiens, UniProt P08246); experiment: Fragmentation of radio labeled rRNase L by cytoplasmic protein extracts of cefoperazone-treated U937 cells; type: cell-based; details: extracts of U937 cells treated 72 hours with 10-1000 micrograms/mL; 15 micrograms extract, 5 minutes at 37 C; FIG. 4
T1 construct: 15 micrograms of U937 cell cytoplasmic protein extract was mixed with 0.1 microgram of ^32P-2-5A-radio labeled rRNase L; endogenous in cells; host or cells: U937 cells (cytoplasmic protein extract)
T1 sequence (P08246 30-267): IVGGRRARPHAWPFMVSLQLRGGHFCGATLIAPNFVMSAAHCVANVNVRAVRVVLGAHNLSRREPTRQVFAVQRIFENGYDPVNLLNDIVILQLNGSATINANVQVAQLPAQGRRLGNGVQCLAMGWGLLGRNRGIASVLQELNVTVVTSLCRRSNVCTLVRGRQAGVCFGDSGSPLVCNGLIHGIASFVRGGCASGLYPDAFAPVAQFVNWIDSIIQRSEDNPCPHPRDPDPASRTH
Method: (§1) In the first condition (Regimen #1), confluent cultures of U937 cells were allowed to remain in culture for an additional 7 days without feeding or media supplementation in order to induce the cells to begin to undergo apoptosis, resulting in the fragmentation of native RNase L (among other proteins).
Briefly, 15 micrograms of U937 cell cytoplasmic protein extract was mixed with 0.1 microgram of ^32P-2-5A-radio labeled rRNase L for a fixed incubation period (5 minutes) at 37 C. The reaction was terminated by the addition of 2×SDS-PAGE loading buffer, the samples were prepared and electrophoresed as described above and analyzed using densitometry.

[3] = tested on: RNase L Protein in the Human Monocytic Leukemia Cell Line U937; experiment: RNase L fragmentation (2-5A binding proteins) in U937 cells, treatment Regimen #1; type: cell-based; details: FIGS. 2 and 3 (Regimens #1 and #2)
Excerpt: as §1

CCN1CCN(C(=O)N[C@@H](C(=O)N[C@@H]2C(=O)N3C(C(=O)O)=C(CSc4nnnn4C)CS[C@H]23)c2ccc(O)cc2)C(=O)C1=O [cefoperazone]
level of inactivation of alpha-1-antitrypsin by activated neutrophils [1]: reduce the level of inactivation of alpha-1-antitrypsin
elastase activity (amount of LMW rRNase L protein generated from pre-labeled HMW rRNase L) [2]: inhibition occurs in a dose-dependent fashion; also recorded: marked inhibition of elastase activity
production of the low molecular weight fragment of native RNase L protein [3]: inhibition is dose-dependent
